Results as given in patent publication US20210269434A1, “TRICYCLIC COMPOUNDS AS INHIBITORS OF KRAS” (Incyte Corporation, priority 2020, published 2021).
pIC50: −log10 of the molar value.

Tests used:
KRAS G12C = KRAS G12C (Homo sapiens, UniProt P01116, G12C); experiment: GDP-GTP exchange assay (KRAS_G12C exchange); assay type: biochemical; settings: bodipy-GDP loaded KRAS G12C 2.5 nM, SOS1 150 nM, GppNHp; 2 hours pre-incubation, 2 hours reaction; read-out: G12C_exchange
Method in brief: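 Fluorescence exchange of bodipy-GDP for GppNHp, SOS1-driven, read at 485/520 nm; IC50 from four-parameter variable-slope fit. Both mutants used 2.5 nM final labelled protein and a 2 h compound pre-incubation. G12C reaction had 500 uM GppNHp and 150 nM SOS1 for 2 h; G12D ran 4 h.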

[1] = system: MIA PaCa-2 (KRAS G12C) cells; experiment: Cellular pERK HTRF assay (KRAS_G12C pERK); assay type: cell-based, human; settings: Homo sapiens, MIA PaCa-2, 4 hours incubation, read-out: G12C_pERK
Method in brief: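 MIA PaCa-2 cells plated overnight, then exposed to compound for 4 h at 37 °C (G12C compounds). Phospho-ERK1/2 measured in lysates by HTRF (665/620 nm) after overnight antibody incubation; IC50 from percent inhibition versus log concentration.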

Sequence of KRAS G12C (P01116 1-188 isoform P01116-2 G12C): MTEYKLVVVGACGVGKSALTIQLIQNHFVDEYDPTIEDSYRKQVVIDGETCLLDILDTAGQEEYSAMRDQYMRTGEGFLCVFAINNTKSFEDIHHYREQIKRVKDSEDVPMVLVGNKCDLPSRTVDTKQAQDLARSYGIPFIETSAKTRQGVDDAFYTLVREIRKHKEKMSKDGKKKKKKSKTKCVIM

Row | SMILES | pIC50 (KRAS G12C) | pIC50 [1]
1 | Cc1nccn1-c1nc2c(F)c(-c3ccccc3)c(Cl)cc2c2c1ncn2[C@H]1CCN(C(=O)/C=C/CN(C)C)[C@H](CC#N)C1 [Example 151, 2-((2S,4S)-4-(8-chloro-6-fluoro-4-(2-methyl-1H-imidazol-1-yl)-7-phenyl-1H-imidazo[4,5-c]quinolin-1-yl)-1-((E)-4-(dimethylamino)but-2-enoyl)piperidin-2-yl)acetonitrile] | ≥ 7.00 | ≥ 7.00
2 | Cc1nccn1-c1nc2c(F)c(-c3ccccc3)c(Cl)cc2c2c1ncn2[C@H]1CCN(C(=O)/C=C/CF)[C@H](CC#N)C1 [Example 152, 2-((2S,4S)-4-(8-chloro-6-fluoro-4-(2-methyl-1H-imidazol-1-yl)-7-phenyl-1H-imidazo[4,5-c]quinolin-1-yl)-1-((E)-4-fluorobut-2-enoyl)piperidin-2-yl)acetonitrile] | ≥ 7.00 | ≥ 7.00
3 | Cc1nccn1-c1nc2c(F)c(-c3ccccc3)c(Cl)cc2c2c1nnn2[C@H]1CCN(C(=O)/C=C/CN(C)C)[C@H](CC#N)C1 [Example 153, 2-((2S,4S)-4-(8-chloro-6-fluoro-4-(2-methyl-1H-imidazol-1-yl)-7-phenyl-1H-[1,2,3]triazolo[4,5-c]quinolin-1-yl)-1-((E)-4-(dimethylamino)but-2-enoyl)piperidin-2-yl)acetonitrile] | ≥ 7.00 | ≥ 7.00
4 | C=CC(=O)N1CC[C@H](n2nnc3c(N4CC(N(C)C)C4)nc4c(F)c(-c5ccccc5)c(Cl)cc4c32)C[C@H]1CC#N [Example 154, 2-((2S,4S)-1-acryloyl-4-(8-chloro-4-(3-(dimethylamino)azetidin-1-yl)-6-fluoro-7-phenyl-1H-[1,2,3]triazolo[4,5-c]quinolin-1-yl)piperidin-2-yl)acetonitrile] | ≥ 7.00 | ≥ 7.00
5 | C=CC(=O)N1CC[C@H](n2nnc3c(OC[C@@H]4CCCN4C)nc4c(F)c(-c5ccccc5)c(Cl)cc4c32)C[C@H]1CC#N [Example 155, 2-((2S,4S)-1-acryloyl-4-(8-chloro-6-fluoro-4-(((S)-1-methylpyrrolidin-2-yl)methoxy)-7-phenyl-1H-[1,2,3]triazolo[4,5-c]quinolin-1-yl)piperidin-2-yl)acetonitrile] | ≥ 7.00 | ≥ 7.00
6 | C=CC(=O)N1CC[C@H](n2nnc3c(-n4ccnc4C)nc4c(F)c(-c5ccccc5)c(C)cc4c32)C[C@H]1CC#N [Example 156, 2-((2S,4S)-1-acryloyl-4-(6-fluoro-8-methyl-4-(2-methyl-1H-imidazol-1-yl)-7-phenyl-1H-[1,2,3]triazolo[4,5-c]quinolin-1-yl)piperidin-2-yl)acetonitrile] | ≥ 7.00 | ≥ 7.00
7 | C=CC(=O)N1CC[C@H](n2nnc3c(N4CC(N(C)C)C4)nc4c(F)c(-c5c(C)c(Cl)cc6[nH]ncc56)c(C#N)cc4c32)C[C@H]1CC#N [Example 169, 1-((2S,4S)-1-acryloyl-2-(cyanomethyl)piperidin-4-yl)-7-(6-chloro-5-methyl-1H-indazol-4-yl)-4-(3-(dimethylamino)azetidin-1-yl)-6-fluoro-1H-[1,2,3]triazolo[4,5-c]quinoline-8-carbonitrile] | ≥ 7.00 | ≥ 7.00
8 | CC#CC(=O)N1CC[C@H](n2nnc3c(N4CC(N(C)C)C4)nc4c(F)c(-c5c(C)c(Cl)cc6[nH]ncc56)c(C#N)cc4c32)C[C@H]1CC#N [Example 170, 1-((2S,4S)-1-(but-2-ynoyl)-2-(cyanomethyl)piperidin-4-yl)-7-(6-chloro-5-methyl-1H-indazol-4-yl)-4-(3-(dimethylamino)azetidin-1-yl)-6-fluoro-1H-[1,2,3]triazolo[4,5-c]quinoline-8-carbonitrile] | ≥ 7.00 | ≥ 7.00
9 | C=CC(=O)N1CC[C@H](n2cnc3c(N4CC(N(C)C)C4)nc4cc(-c5cccc(Cl)c5C)c(Cl)cc4c32)C[C@H]1CC#N [Example 171, 2-((2S,4S)-1-acryloyl-4-(8-chloro-7-(3-chloro-2-methylphenyl)-4-(3-(dimethylamino)azetidin-1-yl)-1H-imidazo[4,5-c]quinolin-1-yl)piperidin-2-yl)acetonitrile] | ≥ 7.00 | ≥ 7.00
10 | C=CC(=O)N1CC[C@H](n2nnc3c(N4CC(N(C)C)C4)nc4cc(-c5cccc(Cl)c5C)c(C)cc4c32)C[C@H]1CC#N [Example 172, 2-((2S,4S)-1-acryloyl-4-(7-(3-chloro-2-methylphenyl)-4-(3-(dimethylamino)azetidin-1-yl)-8-methyl-1H-[1,2,3]triazolo[4,5-c]quinolin-1-yl)piperidin-2-yl)acetonitrile] | ≥ 7.00 | ≥ 7.00
11 | C=CC(=O)N1CC[C@H](n2cnc3c(-c4cccnc4C)nc4c(F)c(-c5cccc(Cl)c5C)c(Cl)cc4c32)C[C@H]1CC#N [Example 173, 2-((2S,4S)-1-acryloyl-4-(8-chloro-7-(3-chloro-2-methylphenyl)-6-fluoro-4-(2-methylpyridin-3-yl)-1H-imidazo[4,5-c]quinolin-1-yl)piperidin-2-yl)acetonitrile] | ≥ 7.00 | ≥ 7.00
12 | C=CC(=O)N1CC[C@H](n2nnc3c(-c4cccnc4C)nc4c(F)c(-c5cccc(Cl)c5C)c(Cl)cc4c32)C[C@H]1CC#N [Example 174, 2-((2S,4S)-1-acryloyl-4-(8-chloro-7-(3-chloro-2-methylphenyl)-6-fluoro-4-(2-methylpyridin-3-yl)-1H-[1,2,3]triazolo[4,5-c]quinolin-1-yl)piperidin-2-yl)acetonitrile] | ≥ 7.00 | ≥ 7.00

The next lines start with the values.

Row | pIC50 (KRAS G12C) | pIC50 [1] | SMILES
13 | ≥ 7.00 | ≥ 7.00 | Cc1cc2c(nc(OC[C@@H]3CCCN3C)c3nnn([C@H]4CCN(C(=O)/C=C/CN(C)C)[C@H](CC#N)C4)c32)c(F)c1-c1ccccc1C(F)(F)F [Example 158a, 2-((2S,4S)-1-((E)-4-(dimethylamino)but-2-enoyl)-4-(6-fluoro-8-methyl-4-(((S)-1-methylpyrrolidin-2-yl)methoxy)-7-(2-(trifluoromethyl)phenyl)-1H-[1,2,3]triazolo[4,5-c]quinolin-1-yl)piperidin-2-yl)acetonitrile]
14 | ≥ 7.00 | ≥ 7.00 | Cc1cc2c(nc(OC[C@@H]3CCCN3C)c3nnn([C@H]4CCN(C(=O)/C=C/C(F)F)[C@H](CC#N)C4)c32)c(F)c1-c1ccccc1C(F)(F)F [Example 161a, 2-((2S,4S)-1-((E)-4,4-difluorobut-2-enoyl)-4-(6-fluoro-8-methyl-4-(((S)-1-methylpyrrolidin-2-yl)methoxy)-7-(2-(trifluoromethyl)phenyl)-1H-[1,2,3]triazolo[4,5-c]quinolin-1-yl)piperidin-2-yl)acetonitrile]
15 | ≥ 7.00 | ≥ 7.00 | CC#CC(=O)N1CC[C@H](n2nnc3c(OC[C@@H]4CCCN4C)nc4c(F)c(-c5ccccc5C(F)(F)F)c(C)cc4c32)C[C@H]1CC#N [Example 162a, 2-((2S,4S)-1-(but-2-ynoyl)-4-(6-fluoro-8-methyl-4-(((S)-1-methylpyrrolidin-2-yl)methoxy)-7-(2-(trifluoromethyl)phenyl)-1H-[1,2,3]triazolo[4,5-c]quinolin-1-yl)piperidin-2-yl)acetonitrile]
16 | ≥ 7.00 | ≥ 7.00 | CC#CC(=O)N1CC[C@H](n2nnc3c(N4CC(N(C)C)C4)nc4c(F)c(-c5ccccc5C(F)(F)F)c(C)cc4c32)C[C@H]1CC#N [Example 166a, 2-((2S,4S)-1-(but-2-ynoyl)-4-(4-(3-(dimethylamino)-azetidin-1-yl)-6-fluoro-8-methyl-7-(2-(trifluoromethyl)-phenyl)-1H-[1,2,3]triazolo-[4,5-c]quinolin-1-yl)piperidin-2-yl)acetonitrile]
